Starred links: 1 amine or outer side, 2 acyl side, 3 side chain; linkers in the order of their positions; H or OH if unused. Positions of bridges follow the written chain, without caps; N, C: chain ends. Non-standard residues stand in square brackets, D forms with d. Residues, ends and D or L forms follow the SMILES beside them. *: point of attachment. Orn(2-imidazolinyl) = N[C@@H](CCCNC1=NCCN1)C(=O)O; Phe(3,4,5-F3) = N[C@@H](Cc1cc(F)c(F)c(F)c1)C(=O)O; Phe(F5) = N[C@@H](Cc1c(F)c(F)c(F)c(F)c1F)C(=O)O; Propanoyl(3,3-Ph2) = O=C(CC(c1ccccc1)c1ccccc1)*; Dihydroorotyl(S) = O=C1C[C@@H](C(=O)*)NC(=O)N1; X7 = CC(=O)NCS(=O)(=O)C[C@H](N[*:1])C(=O)[*:2]; Phe(2-CF3) = N[C@@H](Cc1ccccc1C(F)(F)F)C(=O)O; Phe(3-Cl) = N[C@@H](Cc1cccc(Cl)c1)C(=O)O; Phe(4-Cl) = N[C@@H](Cc1ccc(Cl)cc1)C(=O)O; Phe(3-Me) = Cc1cccc(C[C@H](N)C(=O)O)c1; Phe(4-F) = N[C@@H](Cc1ccc(F)cc1)C(=O)O; Bta = N[C@@H](Cc1csc2ccccc12)C(=O)O; Hyp = O=C(O)[C@@H]1C[C@@H](O)CN1; NMeF = CN[C@@H](Cc1ccccc1)C(=O)O; d(hLeu) = CC(C)CC[C@@H](N)C(=O)O; Tic = O=C(O)[C@@H]1Cc2ccccc2CN1; Cha = N[C@@H](CC1CCCCC1)C(=O)O; Cit = NC(=O)NCCC[C@H](N)C(=O)O; dCha = N[C@H](CC1CCCCC1)C(=O)O; Methoxyoxalyl = COC(=O)C(=O)*; Phg = N[C@H](C(=O)O)c1ccccc1; Nicotinoyl = O=C(c1cccnc1)*; hSer = N[C@@H](CCO)C(=O)O; Nle = CCCC[C@H](N)C(=O)O; Orn = NCCC[C@H](N)C(=O)O; Nva = CCC[C@H](N)C(=O)O
molecular target: T1, human C5aR(CD88) (Homo sapiens, UniProt P21730); assay: Determination of the IC50 value in an enzyme release assay (functional assay, antagonistic activity); format: cell-based; conditions: antagonistic activity; IC50 group in enzyme release assay, RBL cells expressing human C5aR(CD88); read-out: activity (group)
T1 construct: expressed in transfected cells; host or cells: rat basophilic leukemia cells (RBL)
T1 sequence (P21730 1-350): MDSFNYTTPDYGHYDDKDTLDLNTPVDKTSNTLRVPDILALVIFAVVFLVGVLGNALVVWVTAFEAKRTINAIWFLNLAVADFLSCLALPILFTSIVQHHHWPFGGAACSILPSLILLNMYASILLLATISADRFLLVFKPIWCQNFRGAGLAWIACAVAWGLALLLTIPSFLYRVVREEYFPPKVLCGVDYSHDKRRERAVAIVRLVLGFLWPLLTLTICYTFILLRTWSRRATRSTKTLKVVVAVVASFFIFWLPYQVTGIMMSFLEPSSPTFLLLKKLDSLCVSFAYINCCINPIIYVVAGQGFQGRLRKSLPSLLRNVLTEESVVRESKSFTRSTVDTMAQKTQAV

Compound | IC50
CC(=O)N[C@@H](Cc1ccccc1)C(=O)N[C@H]1CCCNC(=O)[C@H](Cc2ccccc2)NC(=O)[C@H](Cc2c[nH]c3ccccc23)NC(=O)[C@H](Cc2cccc(C)c2)NC(=O)[C@@H]2C[C@@H](O)CN2C1=O [Compound 183, Ac-Phe-[Orn-Hyp-Mmf-Trp-Phe]] (Ac-F[Orn][Hyp][Phe(3-Me)]WF; lactam 2-C) | 50 to 200 nM
CC(=O)N[C@@H](Cc1ccccc1)C(=O)N[C@@H](CCCN)C(=O)N1CCC[C@H]1C(=O)N[C@H](CCC(C)C)C(=O)N[C@@H](Cc1csc2ccccc12)C(=O)N[C@@H](Cc1ccc(Cl)cc1)C(N)=O [Compound 278, Ac-Phe-Orn-Pro-hle-Bta-Pcf-NH2] (Ac-F[Orn]P[d(hLeu)][Bta][Phe(4-Cl)]-NH2) | 50 to 200 nM
CCCC[C@@H]1NC(=O)[C@H](Cc2c[nH]c3ccccc23)NC(=O)[C@@H](CC2CCCCC2)NC(=O)[C@@H]2CCCN2C(=O)[C@@H](NC(=O)[C@@H](N)Cc2ccccc2)CCCNC1=O [Compound 376, H-Phe-[Orn-Pro-cha-Trp-Nle]] (H-F[Orn]P[dCha]W[Nle]; lactam 2-C) | 50 to 200 nM
CCCC[C@@H]1NC(=O)[C@H](Cc2cccc(Cl)c2)NC(=O)[C@@H](CCC(C)C)NC(=O)[C@@H]2C[C@@H](OC)CN2C(=O)[C@@H](NC(=O)[C@@H](N)Cc2ccccc2)CCCNC1=O [Compound 354, H-Phe-[Orn-Hym-hle-Mcf-Nle]] (H-F[Orn][Hyp](Me)[d(hLeu)][Phe(3-Cl)][Nle]; lactam 2-C) | 50 to 200 nM
O=C(N[C@@H](Cc1ccccc1)C(=O)N[C@H]1CCCNC(=O)[C@H](Cc2ccccc2)NC(=O)[C@H](Cc2c[nH]c3ccccc23)NC(=O)[C@@H](CC2CCCCC2)NC(=O)[C@@H]2C[C@@H](O)CN2C1=O)c1cccnc1 [Compound 326, Fbn-Phe-[Orn-Hyp-cha-Trp-Phe]] (Nicotinoyl-F[Orn][Hyp][dCha]WF; lactam 2-C) | 50 to 200 nM
CC(=O)N[C@@H](Cc1ccccc1)C(=O)N[C@@H](CCCNC(N)=O)C(=O)N[C@@H](CO)C(=O)N[C@H](CCC(C)C)C(=O)N[C@@H](Cc1csc2ccccc12)C(=O)N[C@@H](Cc1ccccc1)C(N)=O [Compound 212, Ac-Phe-Cit-Ser-hle-Bta-Phe-NH2] (Ac-F[Cit]S[d(hLeu)][Bta]F-NH2) | 50 to 200 nM
CC(=O)N[C@@H](Cc1ccccc1)C(=O)N[C@@H](CCCN)C(=O)N[C@@H](CCO)C(=O)N[C@H](CC1CCCCC1)C(=O)N[C@@H](Cc1csc2ccccc12)C(=O)N[C@@H](Cc1ccccc1)C(N)=O [Compound 243, Ac-Phe-Orn-Hse-cha-Bta-Phe-NH2] (Ac-F[Orn][hSer][dCha][Bta]F-NH2) | 50 to 200 nM
CC(=O)N[C@@H](Cc1ccccc1)C(=O)N[C@@H](CCCN)C(=O)N1CCC[C@H]1C(=O)N[C@H](CCC(C)C)C(=O)N[C@@H](Cc1ccccc1C(F)(F)F)C(=O)N[C@@H](Cc1ccccc1)C(N)=O [Compound 296, Ac-Phe-Orn-Pro-hle-Otf-Phe-NH2] (Ac-F[Orn]P[d(hLeu)][Phe(2-CF3)]F-NH2) | 50 to 200 nM
CC(=O)N[C@@H](Cc1ccccc1)C(=O)N[C@@H](CCCN)C(=O)N1CCC[C@H]1C(=O)N[C@H](CCC(C)C)C(=O)N[C@@H](Cc1csc2ccccc12)C(=O)N[C@@H](Cc1c(F)c(F)c(F)c(F)c1F)C(N)=O [Compound 272, Ac-Phe-Orn-Pro-hle-Bta-5Ff-NH2] (Ac-F[Orn]P[d(hLeu)][Bta][Phe(F5)]-NH2) | 50 to 200 nM
CSCC[C@@H]1NC(=O)[C@H](Cc2c[nH]c3ccccc23)NC(=O)[C@@H](CC2CCCCC2)NC(=O)[C@@H]2CCCN2C(=O)[C@@H](NC(=O)[C@H](Cc2ccccc2)NC(C)=O)CCCNC1=O [Compound 29, Ac-Phe-[Orn-Pro-cha-Trp-Met]] (Ac-F[Orn]P[dCha]WM; lactam 2-C) | 50 to 200 nM
CN[C@@H](Cc1ccccc1)C(=O)N[C@@H](CCCN)C(=O)N1CCC[C@H]1C(=O)N[C@H](CC1CCCCC1)C(=O)N[C@@H](Cc1c[nH]c2ccccc12)C(=O)N[C@@H](Cc1ccccc1)C(N)=O [Compound 75, H—Me-Phe-Orn-Pro-cha-Trp-Phe-NH2] (H-[NMeF][Orn]P[dCha]WF-NH2) | 50 to 200 nM
COC(=O)C(=O)N[C@@H](Cc1ccccc1)C(=O)N[C@@H](CCCN)C(=O)N1CCC[C@H]1C(=O)N[C@H](CC1CCCCC1)C(=O)N[C@@H](Cc1csc2ccccc12)C(=O)N[C@@H](Cc1ccccc1)C(N)=O [Compound 340, Fid-Phe-Orn-Pro-cha-Bta-Phe-NH2] (Methoxyoxalyl-F[Orn]P[dCha][Bta]F-NH2) | 50 to 200 nM
CC(=O)N[C@@H](Cc1ccccc1)C(=O)N[C@@H](CCCNC1=NCCN1)C(=O)N1CCC[C@H]1C(=O)N[C@H](CC1CCCCC1)C(=O)N[C@@H](Cc1csc2ccccc12)C(=O)N[C@@H](Cc1ccccc1)C(N)=O [Compound 225, Ac-Phe-Ffa-Pro-cha-Bta-Phe-NH2] (Ac-F[Orn(2-imidazolinyl)]P[dCha][Bta]F-NH2) | 20 to 50 nM
CCCC[C@@H]1NC(=O)[C@H](Cc2ccc(F)cc2)NC(=O)[C@@H](CCC(C)C)NC(=O)[C@@H]2CCCN2C(=O)[C@@H](NC(=O)[C@@H](N)Cc2ccccc2)CCCNC1=O [Compound 379, H-Phe-[Orn-Pro-hle-Pff-Nle]] (H-F[Orn]P[d(hLeu)][Phe(4-F)][Nle]; lactam 2-C) | 50 to 200 nM
CC(=O)N[C@@H](Cc1ccccc1)C(=O)N[C@@H](CCCNC(N)=O)C(=O)N1CCC[C@H]1C(=O)N[C@H](CC1CCCCC1)C(=O)N[C@@H](Cc1csc2ccccc12)C(=O)N[C@@H](Cc1ccccc1)C(N)=O [Compound 210, Ac-Phe-Cit-Pro-cha-Bta-Phe-NH2] (Ac-F[Cit]P[dCha][Bta]F-NH2) | 50 to 200 nM
CC(=O)N[C@@H](Cc1ccccc1)C(=O)N[C@@H](CCCN)C(=O)N1CCC[C@H]1C(=O)N[C@H](CC1CCCCC1)C(=O)N[C@@H](Cc1c[nH]c2ccccc12)C(=O)N[C@H](C(N)=O)c1ccccc1 [Compound 111, Ac-Phe-Orn-Pro-cha-Trp-Phg-NH2] (Ac-F[Orn]P[dCha]W[Phg]-NH2) | 200 to 2000 nM
CC(=O)N[C@@H](Cc1ccccc1)C(=O)N[C@@H](CCCN)C(=O)N1Cc2ccccc2C[C@H]1C(=O)N[C@H](CC1CCCCC1)C(=O)N[C@@H](Cc1c[nH]c2ccccc12)C(=O)N[C@@H](Cc1ccccc1)C(N)=O [Compound 107, Ac-Phe-Orn-Tic-cha-Trp-Phe-NH2] (Ac-F[Orn][Tic][dCha]WF-NH2) | 50 to 200 nM
NCCC[C@H](NC(=O)CC(c1ccccc1)c1ccccc1)C(=O)N1CCC[C@H]1C(=O)N[C@H](CC1CCCCC1)C(=O)N[C@@H](Cc1c[nH]c2ccccc12)C(=O)N[C@@H](Cc1ccccc1)C(N)=O [Compound 70, Ph2-CH—CH2—CO-Orn-Pro-cha-Trp-Phe-NH2] ({Propanoyl(3,3-Ph2)}-[Orn]P[dCha]WF-NH2) | 200 to 2000 nM
CC(=O)NCS(=O)(=O)C[C@H](NC(=O)[C@H](Cc1ccccc1)NC(C)=O)C(=O)N1CCC[C@H]1C(=O)N[C@H](CC1CCCCC1)C(=O)N[C@@H](Cc1csc2ccccc12)C(=O)N[C@@H](Cc1ccccc1)C(N)=O [Compound 218, Ac-Phe-Eep-Pro-cha-Bta-Phe-NH2] (Ac-F[X7]P[dCha][Bta]F-NH2) | 50 to 200 nM
CCC[C@@H]1NC(=O)[C@H](Cc2c[nH]c3ccccc23)NC(=O)[C@@H](CCC(C)C)NC(=O)[C@@H]2C[C@@H](O)CN2C(=O)[C@@H](NC(=O)[C@@H](N)Cc2ccccc2)CCCNC1=O [Compound 370, H-Phe-[Orn-Hyp-hle-Trp-Nva]] (H-F[Orn][Hyp][d(hLeu)]W[Nva]; lactam 2-C) | 50 to 200 nM
CC(=O)N[C@@H](Cc1ccccc1)C(=O)N[C@@H](CCCN)C(=O)N1CCC[C@H]1C(=O)N[C@H](CCC(C)C)C(=O)N[C@@H](Cc1cc(F)c(F)c(F)c1)C(=O)N[C@@H](Cc1ccccc1)C(N)=O [Compound 305, Ac-Phe-Orn-Pro-hle-Tff-Phe-NH2] (Ac-F[Orn]P[d(hLeu)][Phe(3,4,5-F3)]F-NH2) | 50 to 200 nM
CC(C)CC[C@@H](NC(=O)[C@@H]1CCCN1C(=O)[C@H](CCCN)NC(=O)[C@H](Cc1ccccc1)NC(=O)[C@@H]1CC(=O)NC(=O)N1)C(=O)N[C@@H](Cc1cccc(Cl)c1)C(=O)N[C@@H](Cc1ccccc1)C(N)=O [Compound 351, Hoo-Phe-Orn-Pro-hle-Mcf-Phe-NH2] ({Dihydroorotyl(S)}-F[Orn]P[d(hLeu)][Phe(3-Cl)]F-NH2) | 20 to 50 nM
CC(C)CC[C@@H](NC(=O)[C@@H]1CCCN1C(=O)[C@H](CCCNC(N)=O)NC(=O)[C@H](Cc1ccccc1)NC(=O)[C@@H]1CC(=O)NC(=O)N1)C(=O)N[C@@H](Cc1ccc(F)cc1)C(=O)N[C@@H](Cc1ccccc1)C(N)=O [Compound 348, Hoo-Phe-Cit-Pro-hle-Pff-Phe-NH2] ({Dihydroorotyl(S)}-F[Cit]P[d(hLeu)][Phe(4-F)]F-NH2) | 50 to 200 nM

same assay, conditions: functional assay as used in this application, values in text; read-out: IC50

Compound | IC50
CC(=O)N[C@@H](Cc1ccccc1)C(=O)N[C@@H](CCCCN)C(=O)N[C@@H](C)C(=O)N[C@@H](CC1CCCCC1)C(=O)N[C@@H](C)C(=O)N[C@@H](CC(C)C)C(=O)N[C@H](C)C(=O)N[C@@H](Cc1ccc(O)cc1)C(=O)O [Ac-Phe-Lys-Ala-Cha-Ala-Leu-ala-Tyr-OH, reference compound] (Ac-FKA[Cha]AL[dA]Y-OH) | 1300 nM

same assay, conditions: functional assay of example 11; noteworthy = IC50 less than 200 nM

Compound | inhibitory activity (in words)
CSCC[C@@H]1NC(=O)[C@H](Cc2c[nH]c3ccccc23)NC(=O)[C@@H](CC2CCCCC2)NC(=O)[C@@H]2CCCN2C(=O)[C@@H](NC(=O)[C@H](Cc2ccccc2)NC(C)=O)CCCNC1=O [Compound 29, Ac-Phe-[Orn-Pro-cha-Trp-Met]] (Ac-F[Orn]P[dCha]WM; lactam 2-C) | without significant loss of activity

same assay, conditions: functional assay of example 11; noteworthy = IC50 less than 200 nM; listed as Ac-Phe-[Orn-Pro-cha-Trp-Met]

Compound | inhibitory activity (in words)
CSCC[C@@H]1NC(=O)[C@H](Cc2c[nH]c3ccccc23)NC(=O)[C@@H](CC2CCCCC2)NC(=O)[C@@H]2CCCN2C(=O)[C@@H](NC(=O)[C@H](Cc2ccccc2)NC(C)=O)CCCNC1=O [Compound 29, Ac-Phe-[Orn-Pro-cha-Trp-Met]] (Ac-F[Orn]P[dCha]WM; lactam 2-C) | noteworthy inhibitory activity
